This note sets out measurements from publication PMC3787718 (Structure (London, England : 1993), 2013).

The structures appear in SMILES notation.

For orientation: IC50 means the point on the concentration scale where inhibition reaches its midpoint. A high value points to weaker potency in that assay.

The target in this test is T1, GLIC (Gloeobacter violaceus ligand-gated ion channel) (Gloeobacter violaceus, UniProt Q7NDN8).
T1 sequence (Q7NDN8 44-359): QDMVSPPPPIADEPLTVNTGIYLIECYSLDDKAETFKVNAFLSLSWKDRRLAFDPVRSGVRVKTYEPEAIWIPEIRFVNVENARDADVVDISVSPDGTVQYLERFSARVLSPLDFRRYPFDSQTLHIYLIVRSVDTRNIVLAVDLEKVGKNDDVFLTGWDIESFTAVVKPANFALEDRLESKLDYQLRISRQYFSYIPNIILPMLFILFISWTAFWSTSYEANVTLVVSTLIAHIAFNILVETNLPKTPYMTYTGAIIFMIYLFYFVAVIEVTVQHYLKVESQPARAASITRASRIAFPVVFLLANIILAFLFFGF
The test is described as follows: two-electrode voltage clamp in Xenopus oocytes, inhibition of proton-activated. It is filed as cell-based. For orientation: In two-electrode clamp one electrode senses voltage and the other passes current.

Consider `FC(F)OC(F)C(F)(F)F` (stereo not shown) [DSF, desflurane], for which half-maximal inhibition (IC50) was put at 1100 µM.
